According to PubChem BioAssay AID1259407 (Chemical Carcinogenesis Research Information System (CCRIS), 2018):
The source made the active and inactive calls. No rule for the calls is given here.

Test system: CCRIS mutagenicity, Ames/micronucleus/aberration tests
Experiment: CCRIS mutagenicity studies
Conditions: Test System: AMES SALMONELLA TYPHIMURIUM
[1] = Strain/Indicator: TA97, Metabolic Activation: HAMSTER, LIVER, S-9, AROCLOR 1254 (10 OR 30%), Method: PREINCUBATION
[2] = Strain/Indicator: TA97, Metabolic Activation: NONE, Method: PREINCUBATION
[3] = Strain/Indicator: TA97, Metabolic Activation: RAT, LIVER, S-9, AROCLOR 1254 (10 OR 30%), Method: PREINCUBATION
[4] = Strain/Indicator: TA98, Metabolic Activation: NONE, Method: PREINCUBATION
[5] = Strain/Indicator: TA100, Metabolic Activation: NONE, Method: PREINCUBATION
[6] = Strain/Indicator: TA1535, Metabolic Activation: NONE, Method: PREINCUBATION

Measured: mutagenic call

CC(COC(=O)c1ccccc1)(COC(=O)c1ccccc1)COC(=O)c1ccccc1
inactive: [1] inactive; negative | [2] inactive; negative | [3] inactive; negative | Strain/Indicator: TA98, Metabolic Activation: HAMSTER, LIVER, S-9, AROCLOR 1254 (10 OR 30%), Method: PREINCUBATION inactive; negative | [4] inactive; negative | Strain/Indicator: TA98, Metabolic Activation: RAT, LIVER, S-9, AROCLOR 1254 (10 OR 30%), Method: PREINCUBATION inactive; negative | Strain/Indicator: TA100, Metabolic Activation: HAMSTER, LIVER, S-9, AROCLOR 1254 (10 OR 30%), Method: PREINCUBATION inactive; negative | [5] inactive; negative | Strain/Indicator: TA100, Metabolic Activation: RAT, LIVER, S-9, AROCLOR 1254 (10 OR 30%), Method: PREINCUBATION inactive; negative | Strain/Indicator: TA1535, Metabolic Activation: HAMSTER, LIVER, S-9, AROCLOR 1254 (10 OR 30%), Method: PREINCUBATION inactive; negative | [6] inactive; negative | Strain/Indicator: TA1535, Metabolic Activation: RAT, LIVER, S-9, AROCLOR 1254 (10 OR 30%), Method: PREINCUBATION inactive; negative | Strain/Indicator: TA1537, Metabolic Activation: HAMSTER, LIVER, S-9, AROCLOR 1254 (30%), Method: PREINCUBATION inactive; negative | Strain/Indicator: TA1537, Metabolic Activation: NONE, Method: PREINCUBATION inactive; negative | Strain/Indicator: TA1537, Metabolic Activation: RAT, LIVER, S-9, AROCLOR 1254 (30%), Method: PREINCUBATION inactive; negative

CN(CCO)C(=O)Nc1ccccc1
inactive: Strain/Indicator: TA98, Metabolic Activation: NONE, Method: STANDARD PLATE inactive; negative | Strain/Indicator: TA98, Metabolic Activation: RAT, LIVER, S-9, AROCLOR 1254, Method: STANDARD PLATE inactive; negative | Strain/Indicator: TA100, Metabolic Activation: NONE, Method: STANDARD PLATE inactive; negative | Strain/Indicator: TA100, Metabolic Activation: RAT, LIVER, S-9, AROCLOR 1254, Method: STANDARD PLATE inactive; negative | Strain/Indicator: TA1535, Metabolic Activation: NONE, Method: STANDARD PLATE inactive; negative | Strain/Indicator: TA1535, Metabolic Activation: RAT, LIVER, S-9, AROCLOR 1254, Method: STANDARD PLATE inactive; negative | Strain/Indicator: TA1537, Metabolic Activation: NONE, Method: STANDARD PLATE inactive; negative | Strain/Indicator: TA1537, Metabolic Activation: RAT, LIVER, S-9, AROCLOR 1254, Method: STANDARD PLATE inactive; negative | Strain/Indicator: TA1538, Metabolic Activation: NONE, Method: STANDARD PLATE inactive; negative | Strain/Indicator: TA1538, Metabolic Activation: RAT, LIVER, S-9, AROCLOR 1254, Method: STANDARD PLATE inactive; negative

[Ga]#[As]
inactive: [1] inactive; negative | [2] inactive; negative | [3] inactive; negative | Strain/Indicator: TA98, Metabolic Activation: HAMSTER, LIVER, S-9, AROCLOR 1254 (10%), Method: PREINCUBATION inactive; negative | Strain/Indicator: TA98, Metabolic Activation: HAMSTER, LIVER, S-9, AROCLOR 1254 (30%), Method: PREINCUBATION inactive; negative | [4] inactive; negative | Strain/Indicator: TA98, Metabolic Activation: RAT, LIVER, S-9, AROCLOR 1254 (10%), Method: PREINCUBATION inactive; negative | Strain/Indicator: TA98, Metabolic Activation: RAT, LIVER, S-9, AROCLOR 1254 (30%), Method: PREINCUBATION inactive; negative | Strain/Indicator: TA100, Metabolic Activation: HAMSTER, LIVER, S-9, AROCLOR 1254 (10%), Method: PREINCUBATION inactive; negative | Strain/Indicator: TA100, Metabolic Activation: HAMSTER, LIVER, S-9, AROCLOR 1254 (30%), Method: PREINCUBATION inactive; negative | [5] inactive; negative | Strain/Indicator: TA100, Metabolic Activation: RAT, LIVER, S-9, AROCLOR 1254 (10%), Method: PREINCUBATION inactive; negative | Strain/Indicator: TA100, Metabolic Activation: RAT, LIVER, S-9, AROCLOR 1254 (30%), Method: PREINCUBATION inactive; negative | Strain/Indicator: TA102, Metabolic Activation: HAMSTER, LIVER, S-9, AROCLOR 1254 (5 OR 10%), Method: PREINCUBATION inactive; negative | Strain/Indicator: TA102, Metabolic Activation: HAMSTER, LIVER, S-9, AROCLOR 1254 (30%), Method: PREINCUBATION inactive; negative | Strain/Indicator: TA102, Metabolic Activation: NONE, Method: PREINCUBATION inactive; negative | Strain/Indicator: TA102, Metabolic Activation: RAT, LIVER, S-9, AROCLOR 1254 (10%), Method: PREINCUBATION inactive; negative | Strain/Indicator: TA102, Metabolic Activation: RAT, LIVER, S-9, AROCLOR 1254 (30%), Method: PREINCUBATION inactive; negative | Strain/Indicator: TA1535, Metabolic Activation: HAMSTER, LIVER, S-9, AROCLOR 1254 (10%), Method: PREINCUBATION inactive; negative | Strain/Indicator: TA1535, Metabolic Activation: HAMSTER, LIVER, S-9, AROCLOR 1254 (30%), Method: PREINCUBATION inactive; negative | [6] inactive; negative | Strain/Indicator: TA1535, Metabolic Activation: RAT, LIVER, S-9, AROCLOR 1254 (10%), Method: PREINCUBATION inactive; negative | Strain/Indicator: TA1535, Metabolic Activation: RAT, LIVER, S-9, AROCLOR 1254 (30%), Method: PREINCUBATION inactive; negative
